Test results taken from patent US20080069785A1, “PEST-CONTROL COMPOSITIONS, AND METHODS AND PRODUCTS UTILIZING SAME” (priority 2004, published 2008).

Test system: cockroaches (Blattella germanica)
Assay: Weeklong surface area toxicity test on cockroaches (Example 19)
Assay type: in vivo
Conditions: for cockroaches alive (of five): 0-1 days; for cockroaches alive (of five per cup): 3-4 days treatment
Protocol: In order determine the toxicity of the formulation to the insect after application to a surface over a period of time, the following test was performed. […] Cockroaches were placed in the cups on the first day following the application of the formulations, on the third day following the application of the formulations, and on the sixth day following the application of the formulations in order to monitor the toxicity of the formulations after a period of time had elapsed. The mortality of the cockroaches was then recorded at the time intervals noted. The five cockroaches placed in each cup were one week old cockroaches (Blattella germanica) which had been reared at twenty seven degrees centigrade, at sixty five percent relative humidity, and on a twelve hour light to dark photoperiod. Each of the cups had Fluon®AD1 treated sides to prevent the escape of the cockroaches.

CCCCCCCCCC(C)=O [Undecanone, 2-Undecanone]
0: cockroaches alive (of five) (0.19 μL/cm^2 (10 μL), 60 min) | cockroaches alive (of five) (0.19 μL/cm^2 (10 μL), 90 min) | cockroaches alive (of five) (0.19 μL/cm^2 (10 μL), 2 h) | cockroaches alive (of five) (0.19 μL/cm^2 (10 μL), 4 h) | cockroaches alive (of five) (0.19 μL/cm^2 (10 μL), 17.5 h) | cockroaches alive (of five) (0.19 μL/cm^2 (10 μL), 18 h) | cockroaches alive (of five) (0.19 μL/cm^2 (10 μL), 21 h) | cockroaches alive (of five) (0.19 μL/cm^2 (10 μL), 24 h) | cockroaches alive (of five) (0.19 μL/cm^2 (10 μL), 27.5 h) | cockroaches alive (of five) (0.19 μL/cm^2 (10 μL), 29 h) | cockroaches alive (of five) (0.19 μL/cm^2 (10 μL), 30 h) | cockroaches alive (of five) (0.95 μL/cm^2 (50 μL), 5 min) | cockroaches alive (of five) (0.95 μL/cm^2 (50 μL), 10 min) | cockroaches alive (of five) (0.95 μL/cm^2 (50 μL), 15 min) | cockroaches alive (of five) (0.95 μL/cm^2 (50 μL), 30 min) | cockroaches alive (of five) (0.95 μL/cm^2 (50 μL), 60 min) | cockroaches alive (of five) (0.95 μL/cm^2 (50 μL), 90 min) | cockroaches alive (of five) (0.95 μL/cm^2 (50 μL), 2 h) | cockroaches alive (of five) (0.95 μL/cm^2 (50 μL), 4 h) | cockroaches alive (of five) (0.95 μL/cm^2 (50 μL), 17.5 h) | cockroaches alive (of five) (0.95 μL/cm^2 (50 μL), 18 h) | cockroaches alive (of five) (0.95 μL/cm^2 (50 μL), 21 h) | cockroaches alive (of five) (0.95 μL/cm^2 (50 μL), 24 h) | cockroaches alive (of five) (0.95 μL/cm^2 (50 μL), 27.5 h) | cockroaches alive (of five) (0.95 μL/cm^2 (50 μL), 29 h) | cockroaches alive (of five) (0.95 μL/cm^2 (50 μL), 30 h)
4: cockroaches alive (of five) (0.09 μL/cm^2 (5 μL), 15 min) | cockroaches alive (of five) (0.09 μL/cm^2 (5 μL), 30 min) | cockroaches alive (of five) (0.09 μL/cm^2 (5 μL), 60 min) | cockroaches alive (of five) (0.09 μL/cm^2 (5 μL), 90 min) | cockroaches alive (of five) (0.09 μL/cm^2 (5 μL), 2 h) | cockroaches alive (of five) (0.09 μL/cm^2 (5 μL), 4 h) | cockroaches alive (of five) (0.09 μL/cm^2 (5 μL), 17.5 h) | cockroaches alive (of five) (0.09 μL/cm^2 (5 μL), 18 h) | cockroaches alive (of five) (0.09 μL/cm^2 (5 μL), 21 h) | cockroaches alive (of five) (0.09 μL/cm^2 (5 μL), 24 h)
5: cockroaches alive (of five) (0.02 μL/cm^2 (1 μL), 5 min) | cockroaches alive (of five) (0.02 μL/cm^2 (1 μL), 10 min) | cockroaches alive (of five) (0.02 μL/cm^2 (1 μL), 15 min) | cockroaches alive (of five) (0.02 μL/cm^2 (1 μL), 30 min) | cockroaches alive (of five) (0.02 μL/cm^2 (1 μL), 60 min) | cockroaches alive (of five) (0.02 μL/cm^2 (1 μL), 90 min) | cockroaches alive (of five) (0.02 μL/cm^2 (1 μL), 2 h) | cockroaches alive (of five) (0.02 μL/cm^2 (1 μL), 4 h) | cockroaches alive (of five) (0.02 μL/cm^2 (1 μL), 17.5 h) | cockroaches alive (of five) (0.02 μL/cm^2 (1 μL), 18 h) | cockroaches alive (of five) (0.02 μL/cm^2 (1 μL), 21 h) | cockroaches alive (of five) (0.02 μL/cm^2 (1 μL), 24 h) | cockroaches alive (of five) (0.02 μL/cm^2 (1 μL), 27.5 h) | cockroaches alive (of five) (0.02 μL/cm^2 (1 μL), 29 h) | cockroaches alive (of five) (0.02 μL/cm^2 (1 μL), 30 h) | cockroaches alive (of five) (0.09 μL/cm^2 (5 μL), 5 min) | cockroaches alive (of five) (0.09 μL/cm^2 (5 μL), 10 min) | cockroaches alive (of five) (0.19 μL/cm^2 (10 μL), 5 min) | cockroaches alive (of five) (0.19 μL/cm^2 (10 μL), 10 min) | cockroaches alive (of five) (0.19 μL/cm^2 (10 μL), 15 min) | cockroaches alive (of five per cup) (0.02 μL/cm^2 (1 μL), 5 min) | cockroaches alive (of five per cup) (0.02 μL/cm^2 (1 μL), 10 min) | cockroaches alive (of five per cup) (0.02 μL/cm^2 (1 μL), 15 min) | cockroaches alive (of five per cup) (0.02 μL/cm^2 (1 μL), 30 min) | cockroaches alive (of five per cup) (0.02 μL/cm^2 (1 μL), 60 min) | cockroaches alive (of five per cup) (0.02 μL/cm^2 (1 μL), 90 min) | cockroaches alive (of five per cup) (0.02 μL/cm^2 (1 μL), 2 h) | cockroaches alive (of five per cup) (0.02 μL/cm^2 (1 μL), 4 h) | cockroaches alive (of five per cup) (0.02 μL/cm^2 (1 μL), 23 h) | cockroaches alive (of five per cup) (0.02 μL/cm^2 (1 μL), 24 h) | cockroaches alive (of five per cup) (0.02 μL/cm^2 (1 μL), 27 h) | cockroaches alive (of five per cup) (0.02 μL/cm^2 (1 μL), 30 h) | cockroaches alive (of five per cup) (0.09 μL/cm^2 (5 μL), 5 min) | cockroaches alive (of five per cup) (0.09 μL/cm^2 (5 μL), 10 min) | cockroaches alive (of five per cup) (0.09 μL/cm^2 (5 μL), 15 min) | cockroaches alive (of five per cup) (0.09 μL/cm^2 (5 μL), 30 min) | cockroaches alive (of five per cup) (0.09 μL/cm^2 (5 μL), 60 min) | cockroaches alive (of five per cup) (0.09 μL/cm^2 (5 μL), 90 min) | cockroaches alive (of five per cup) (0.09 μL/cm^2 (5 μL), 2 h) | cockroaches alive (of five per cup) (0.09 μL/cm^2 (5 μL), 4 h)
2: cockroaches alive (of five) (0.19 μL/cm^2 (10 μL), 30 min)
3: cockroaches alive (of five) (0.09 μL/cm^2 (5 μL), 27.5 h) | cockroaches alive (of five) (0.09 μL/cm^2 (5 μL), 29 h) | cockroaches alive (of five) (0.09 μL/cm^2 (5 μL), 30 h)
